Legend:
Format in all cases: cell-based
[1] = target: T1, hSLC2A9b (human glucose transporter 9) (Homo sapiens, UniProt Q9NRM0); test: […] fructose uptake in Xenopus oocytes
T1 construct: gene SLC2A9; hSLC2A9b isoform (shorter N-terminus), WT
T1 sequence (Q9NRM0 1-511 isoform Q9NRM0-2 limits assumed): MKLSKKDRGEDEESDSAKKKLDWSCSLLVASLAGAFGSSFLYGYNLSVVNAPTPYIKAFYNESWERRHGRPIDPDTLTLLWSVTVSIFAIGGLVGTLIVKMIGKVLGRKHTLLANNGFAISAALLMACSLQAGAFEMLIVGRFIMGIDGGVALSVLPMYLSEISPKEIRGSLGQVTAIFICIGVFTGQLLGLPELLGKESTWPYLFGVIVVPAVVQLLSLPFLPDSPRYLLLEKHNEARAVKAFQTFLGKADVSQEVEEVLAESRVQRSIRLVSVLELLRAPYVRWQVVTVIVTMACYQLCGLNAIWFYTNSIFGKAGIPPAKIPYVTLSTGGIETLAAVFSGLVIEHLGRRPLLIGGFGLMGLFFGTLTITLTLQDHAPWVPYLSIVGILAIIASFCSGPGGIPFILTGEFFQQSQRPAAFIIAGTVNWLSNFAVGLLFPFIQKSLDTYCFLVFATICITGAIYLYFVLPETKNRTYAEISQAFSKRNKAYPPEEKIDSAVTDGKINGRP

[2] = target: T1, hSLC2A9b (human glucose transporter 9); test: TEVC inhibition of urate-induced current and […] urate flux in Xenopus oocytes
[3] = target: T1, hSLC2A9b (human glucose transporter 9); test: […] urate flux kinetics and TEVC in Xenopus oocytes

Q: For `OC[C@H]1OC(O)(CO)[C@@H](O)[C@@H]1O` (stereo partly drawn) [fructose], which “14C fructose uptake in Xenopus oocytes” value [1] is on record?
A: all mutants transported fructose similarly as WT hSLC2A9b

Q: With `O=S(=O)(O)c1cc[c]([Hg][Cl])cc1` [pCMBS] as the compound, how does the IC50 [2] read?
A: 52.5 µM

Q: `O=c1[nH]c(=O)c2[nH]c(=O)[nH]c2[nH]1` [urate] was tested. Which “14C urate flux kinetics and TEVC in Xenopus oocytes” value [3] did it give?
A: both WT hSLC2A9b and its cysteine mutants exhibited Michaelis-Menten type kinetics for urate transport

— paper PMC5259734, “Identification of Key Residues for Urate Specific Transport in Human Glucose Transporter 9 (hSLC2A9)” (Scientific Reports, 2017)
